Assay results reported in publication PMC7659001, “The auxin-inducible degron 2 technology provides sharp degradation control in yeast, mammalian cells, and mice” (Nature Communications, 2020).

What was measured:
Type in all cases: cell-based
OsTIR1 [1] = target: T1, OsTIR1 (Oryza sativa subsp. japonica, UniProt P93830+Q7XVM8); assay: mAID-EGFP-NLS reporter degradation dose response in HCT116 cells (DC50)
T1 construct: gene Os04g0395600; with mAID degron (Arabidopsis IAA17); SCF (Skp1-Cul1)

OsTIR1 [2] = target: T2, OsTIR1 (Oryza sativa, UniProt Q7XVM8); assay: OsTIR1(WT) level in HCT116 cells raised by the inhibitor (suppressed autodegradation)
T2 construct: gene Os04g0395600
T2 sequence (Q7XVM8 1-575): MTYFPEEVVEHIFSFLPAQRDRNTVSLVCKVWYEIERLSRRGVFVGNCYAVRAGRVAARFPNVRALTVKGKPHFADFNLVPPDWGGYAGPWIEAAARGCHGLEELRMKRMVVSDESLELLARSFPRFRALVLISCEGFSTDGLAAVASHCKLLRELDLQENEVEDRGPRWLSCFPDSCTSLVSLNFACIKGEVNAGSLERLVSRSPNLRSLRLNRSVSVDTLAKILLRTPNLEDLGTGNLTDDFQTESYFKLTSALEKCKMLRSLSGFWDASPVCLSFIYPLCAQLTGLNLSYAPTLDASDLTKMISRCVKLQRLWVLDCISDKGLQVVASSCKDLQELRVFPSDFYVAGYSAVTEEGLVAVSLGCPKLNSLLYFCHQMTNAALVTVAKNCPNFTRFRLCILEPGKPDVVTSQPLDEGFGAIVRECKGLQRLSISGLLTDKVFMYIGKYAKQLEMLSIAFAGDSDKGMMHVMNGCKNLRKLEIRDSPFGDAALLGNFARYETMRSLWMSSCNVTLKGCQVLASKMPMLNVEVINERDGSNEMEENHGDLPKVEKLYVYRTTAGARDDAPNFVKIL

OsTIR1 [3] = target: T3, OsTIR1 (Oryza sativa subsp. japonica, UniProt P93830+Q7XVM8, Q7XVM8:F74G); assay: mAID-EGFP-NLS reporter degradation dose response in HCT116 cells (DC50)
T3 construct: gene Os04g0395600; with mAID degron (Arabidopsis IAA17); SCF (Skp1-Cul1)
T3 sequence (Q7XVM8 whole entry F74G): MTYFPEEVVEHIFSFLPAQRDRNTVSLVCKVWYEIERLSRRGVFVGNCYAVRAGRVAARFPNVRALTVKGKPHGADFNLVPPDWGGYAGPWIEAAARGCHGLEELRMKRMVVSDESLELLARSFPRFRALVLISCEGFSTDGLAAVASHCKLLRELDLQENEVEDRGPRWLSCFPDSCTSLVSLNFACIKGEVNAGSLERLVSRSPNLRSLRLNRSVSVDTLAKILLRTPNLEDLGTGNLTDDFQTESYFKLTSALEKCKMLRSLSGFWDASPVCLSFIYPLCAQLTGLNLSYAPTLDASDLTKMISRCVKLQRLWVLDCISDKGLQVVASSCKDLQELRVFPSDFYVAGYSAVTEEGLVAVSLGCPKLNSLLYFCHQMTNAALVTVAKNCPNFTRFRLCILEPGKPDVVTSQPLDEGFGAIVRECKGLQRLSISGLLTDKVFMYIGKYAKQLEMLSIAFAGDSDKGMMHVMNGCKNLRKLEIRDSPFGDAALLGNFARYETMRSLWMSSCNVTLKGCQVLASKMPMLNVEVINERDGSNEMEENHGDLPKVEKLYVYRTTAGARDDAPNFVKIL
T3 sequence (P93830 65-132 limits assumed): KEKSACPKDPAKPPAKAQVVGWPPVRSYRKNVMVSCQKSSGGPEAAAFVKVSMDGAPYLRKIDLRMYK

T1 sequence (P93830 whole entry, one chain of several): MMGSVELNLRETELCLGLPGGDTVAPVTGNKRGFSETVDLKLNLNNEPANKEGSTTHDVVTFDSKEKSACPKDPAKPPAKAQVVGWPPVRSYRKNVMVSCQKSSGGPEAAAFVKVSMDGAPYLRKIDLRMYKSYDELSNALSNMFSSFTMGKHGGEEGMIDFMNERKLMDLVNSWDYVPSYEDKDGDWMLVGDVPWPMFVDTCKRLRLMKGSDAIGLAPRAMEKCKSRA

`O=C(O)Cc1c[nH]c2ccccc12` [IAA, indole-3-acetic acid] was tested, and the DC50 (OsTIR1 [1]) was 300 ± 30 nM.
`Cc1ccc(C(=O)CC(C(=O)O)c2c[nH]c3ccccc23)c(C)c1` (stereo not drawn) [auxinole] was tested, and the “OsTIR1(WT) level in HCT116 cells raised by the inhibitor (suppressed autodegrada)” value (OsTIR1 [2]) was “The expression level of OsTIR1(WT) was enhanced by the addition of an OsTIR1 inhibitor auxinole”.
For `O=C(O)Cc1c[nH]c2ccc(-c3ccccc3)cc12` [5-Ph-IAA, 5-phenyl-indole-3-acetic acid], the DC50 (OsTIR1 [3]) was 0.45 ± 0.01 nM.
